Test results taken from patent US12202818B2, “Compounds and methods for CD73 modulation and indications therefor” (Opna Bio SA, priority 2020, dated 2025).

Assays:
[1] = target: T1, Human CD73 (amino acid residues 27-549) (Homo sapiens, UniProt P21589); assay: CD73 enzymatic assay (luciferase-based indirect assay, CellTiter-Glo); assay type: biochemical; conditions: 0.4 nM CD73, 150 μM AMP, 1 hour at room temperature
T1 construct: Human CD73 (amino acid residues 27-549); His tag (N); made in house; host or cells: E. coli
T1 sequence (P21589 27-549): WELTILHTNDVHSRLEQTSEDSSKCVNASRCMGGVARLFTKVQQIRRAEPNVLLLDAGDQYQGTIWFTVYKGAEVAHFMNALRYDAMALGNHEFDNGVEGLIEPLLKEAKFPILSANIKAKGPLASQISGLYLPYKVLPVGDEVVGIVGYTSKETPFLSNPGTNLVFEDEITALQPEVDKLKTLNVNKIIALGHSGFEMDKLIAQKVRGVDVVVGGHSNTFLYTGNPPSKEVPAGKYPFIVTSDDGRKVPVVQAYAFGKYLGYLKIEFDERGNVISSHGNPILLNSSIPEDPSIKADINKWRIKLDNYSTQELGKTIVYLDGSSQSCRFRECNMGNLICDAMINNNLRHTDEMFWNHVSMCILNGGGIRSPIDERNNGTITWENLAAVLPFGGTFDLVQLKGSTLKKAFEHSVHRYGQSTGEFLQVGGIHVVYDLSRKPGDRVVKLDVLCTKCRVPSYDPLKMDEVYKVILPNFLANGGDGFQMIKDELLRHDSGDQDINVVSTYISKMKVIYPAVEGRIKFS
Summary of the method: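 Luciferase-coupled readout: AMP left after CD73 turnover suppresses CellTiter-Glo signal (1 μM ATP final, 30 min RT). Reaction beforehand: 150 μM AMP, 0.4 nM E. coli-made His-tagged CD73 residues 27-549, test compound, HEPES pH 7.4 with Tween-20, 1 h RT. % inhibition fitted nonlinearly for IC50.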

[2] = target: T2, human CD73 (Homo sapiens, UniProt P21589); assay: Inhibitor activity against CD73 in cell based assay (CD73 expressing CHO-K1 cells); conditions: CHO-K1 cells expressing human CD73, 150 μM AMP, 4 hours of incubation; read-out: CHO-K1 CELL_VARIANT: CD73 IC50
T2 construct: expressed in transfected cells
T2 sequence (P21589 27-549): T1 sequence (P21589 27-549)
Summary of the method: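 AMP (150 μM) was added alongside 8 titrated compound doses (maximum 10 μM, 1:3 steps) to CHO-K1 cells stably expressing human CD73. After 4 h, supernatant AMP was measured indirectly with CellTiter-Glo 2.0 plus 1 μM ATP (30 min, RT). % inhibition versus high and low controls was fitted nonlinearly for IC50.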

Q: Which results are given for `Cc1cc(S(C)(=O)=O)ccc1-c1ccnc(O[C@@H]2CCN(c3cn[nH]c(=O)c3Cl)C2)c1` [P-0081, (R)-4-chloro-5-(3-((4-(2-methyl-4-(methylsulfonyl)phenyl)pyridin-2-yl)oxy)pyrrolidin-1-yl)pyridazin-3(2H)-one]?
A: IC50 [1]: 0.001 to 10 µM; IC50 [2]: 0.001 to 10 µM

Q: Which results are given for `O=c1[nH]ncc(N2CC[C@@H](Oc3cc(N4CCC5(CC4)COC5)ccn3)C2)c1Cl` [P-0082, (R)-5-(3-((4-(2-oxa-7-azaspiro[3.5]nonan-7-yl)pyridin-2-yl)oxy)pyrrolidin-1-yl)-4-chloropyridazin-3(2H)-one]?
A: IC50 [1]: 0.001 to 10 µM; IC50 [2]: 0.001 to 10 µM

Q: Which IC50 [1] does the source give for `O=c1[nH]ncc(N2CC[C@@H](Oc3cc(N4CCC(CO)(CCl)CC4)ccn3)C2)c1Cl` [P-0083, (R)-4-chloro-5-(3-((4-(4-(chloromethyl)-4-(hydroxymethyl)piperidin-1-yl)pyridin-2-yl)oxy)pyrrolidin-1-yl)pyridazin-3(2H)-one] here?
A: The IC50 was 0.001 to 10 µM.

Q: What about the IC50 [2] of the same compound?
A: Its IC50 is 0.001 to 10 µM.

Q: `O=c1[nH]ncc(N2CC[C@@H](Oc3cc(C4=CCCC4)ccn3)C2)c1Cl` [P-0084, (R)-4-chloro-5-(3-((4-(cyclopent-1-en-1-yl)pyridin-2-yl)oxy)pyrrolidin-1-yl)pyridazin-3(2H)-one] was tested. Which IC50 [1] did it give?
A: The IC50 was 0.001 to 10 µM.

Q: What about the IC50 [2] of the same compound?
A: The IC50 was 0.001 to 10 µM.

Q: Which IC50 [1] does the source give for `O=c1[nH]ncc(N2CC[C@@H](Oc3cc(C4CCCCC4)ccn3)C2)c1Cl` [P-0085, (R)-4-chloro-5-(3-((4-cyclohexylpyridin-2-yl)oxy)pyrrolidin-1-yl)pyridazin-3(2H)-one] here?
A: The IC50 was 0.001 to 10 µM.

Q: And the IC50 [2]?
A: The IC50 was 0.001 to 10 µM.

Q: For `Cc1nn(CC2CCO2)c(C)c1-c1ccnc(O[C@@H]2CCN(c3cn[nH]c(=O)c3Cl)C2)c1` (stereo partly drawn) [P-0086, 4-chloro-5-((3R)-3-((4-(3,5-dimethyl-1-(oxetan-2-ylmethyl)-1H-pyrazol-4-yl)pyridin-2-yl)oxy)pyrrolidin-1-yl)pyridazin-3(2H)-one], which IC50 [1] is on record?
A: Its IC50 is 0.001 to 10 µM.

Q: What about the IC50 [2] of the same compound?
A: Its IC50 is 0.001 to 10 µM.

Q: With `Cc1nn(CC2COC2)c(C)c1-c1ccnc(O[C@@H]2CCN(c3cn[nH]c(=O)c3Cl)C2)c1` [P-0087, (R)-4-chloro-5-(3-((4-(3,5-dimethyl-1-(oxetan-3-ylmethyl)-1H-pyrazol-4-yl)pyridin-2-yl)oxy)pyrrolidin-1-yl)pyridazin-3(2H)-one] as the compound, how does the IC50 [1] read?
A: Its IC50 is 0.001 to 10 µM.

Q: And the IC50 [2]?
A: Its IC50 is 0.001 to 10 µM.

Q: Which results are given for `Cc1nn(C(CO)CI)c(C)c1-c1ccnc(O[C@@H]2CCN(c3cn[nH]c(=O)c3Cl)C2)c1` (stereo partly drawn) [P-0088, 4-chloro-5-((3R)-3-((4-(1-(1-hydroxy-3-iodopropan-2-yl)-3,5-dimethyl-1H-pyrazol-4-yl)pyridin-2-yl)oxy)pyrrolidin-1-yl)pyridazin-3(2H)-one]?
A: IC50 [1]: 0.001 to 10 µM; IC50 [2]: 0.001 to 10 µM

Q: Which IC50 [1] does the source give for `Cc1nn(C)c(C)c1-c1cc(O[C@@H]2CCN(c3cn[nH]c(=O)c3Cl)C2)nc(N)n1` [P-0089, (R)-5-(3-((2-amino-6-(1,3,5-trimethyl-1H-pyrazol-4-yl)pyrimidin-4-yl)oxy)pyrrolidin-1-yl)-4-chloropyridazin-3(2H)-one] here?
A: Its IC50 is 0.001 to 10 µM.

Q: What about the IC50 [2] of the same compound?
A: Its IC50 is 0.001 to 10 µM.

Q: Which results are given for `Cc1noc(C)c1-c1ccnc(O[C@@H]2CCN(c3cnn(CCCO)c(=O)c3Cl)C2)c1` [P-0090, (R)-4-chloro-5-(3-((4-(3,5-dimethylisoxazol-4-yl)pyridin-2-yl)oxy)pyrrolidin-1-yl)-2-(3-hydroxypropyl)pyridazin-3(2H)-one]?
A: IC50 [1]: 0.001 to 10 µM; IC50 [2]: 0.001 to 10 µM

Q: Which IC50 [1] does the source give for `N#CC1CCC(c2ccnc(O[C@@H]3CCN(c4cn[nH]c(=O)c4Cl)C3)c2)CC1` (stereo partly drawn) [P-0091, (R)-4-(2-((1-(5-chloro-6-oxo-1,6-dihydropyridazin-4-yl)pyrrolidin-3-yl)oxy)pyridin-4-yl)cyclohexane-1-carbonitrile] here?
A: The IC50 was 0.001 to 10 µM.

Q: And the IC50 [2]?
A: Its IC50 is 0.001 to 10 µM.

Q: What does the source list for `CC1COCCN1c1ccnc(O[C@@H]2CCN(c3cn[nH]c(=O)c3Cl)C2)c1` (stereo partly drawn) [P-0092, 4-chloro-5-((3R)-3-((4-(3-methylmorpholino)pyridin-2-yl)oxy)pyrrolidin-1-yl)pyridazin-3(2H)-one]?
A: IC50 [1]: 0.001 to 10 µM; IC50 [2]: 0.001 to 10 µM

Q: With `CC1CCCN1c1ccnc(O[C@@H]2CCN(c3cn[nH]c(=O)c3Cl)C2)c1` (stereo partly drawn) [P-0093, 4-chloro-5-((3R)-3-((4-(2-methylpyrrolidin-1-yl)pyridin-2-yl)oxy)pyrrolidin-1-yl)pyridazin-3(2H)-one] as the compound, how does the IC50 [1] read?
A: Its IC50 is 0.001 to 10 µM.

Q: What about the IC50 [2] of the same compound?
A: Its IC50 is 0.001 to 10 µM.

Q: Which results are given for `CC1CCCCN1c1ccnc(O[C@@H]2CCN(c3cn[nH]c(=O)c3Cl)C2)c1` (stereo partly drawn) [P-0094, 4-chloro-5-((3R)-3-((4-(2-methylpiperidin-1-yl)pyridin-2-yl)oxy)pyrrolidin-1-yl)pyridazin-3(2H)-one]?
A: IC50 [1]: 0.001 to 10 µM; IC50 [2]: 0.001 to 10 µM

Q: `Cc1nn(CC2(C)COC2)c(C)c1-c1ccnc(O[C@@H]2CCN(c3cn[nH]c(=O)c3Cl)C2)c1` [P-0095, (R)-4-chloro-5-(3-((4-(3,5-dimethyl-1-((3-methyloxetan-3-yl)methyl)-1H-pyrazol-4-yl)pyridin-2-yl)oxy)pyrrolidin-1-yl)pyridazin-3(2H)-one] was tested. Which IC50 [1] did it give?
A: Its IC50 is 0.001 to 10 µM.

Q: What about the IC50 [2] of the same compound?
A: Its IC50 is 0.001 to 10 µM.

Q: Which IC50 [1] does the source give for `Cc1nn(CC2(C)COC2)c(C)c1-c1ccnc(O[C@H]2CN(c3cn[nH]c(=O)c3Cl)C[C@@H]2F)c1` [P-0096, 4-chloro-5-((3S,4S)-3-((4-(3,5-dimethyl-1-((3-methyloxetan-3-yl)methyl)-1H-pyrazol-4-yl)pyridin-2-yl)oxy)-4-fluoropyrrolidin-1-yl)pyridazin-3(2H)-one] here?
A: The IC50 was 0.001 to 10 µM.

Q: What about the IC50 [2] of the same compound?
A: The IC50 was 0.001 to 10 µM.

Q: `Cc1nn(C)c(C)c1-c1ccnc(O[C@@H]2CCN(c3cnn(CCCO)c(=O)c3C#N)C2)c1` [P-0097, (R)-2-(3-hydroxypropyl)-3-oxo-5-(3-((4-(1,3,5-trimethyl-1H-pyrazol-4-yl)pyridin-2-yl)oxy)pyrrolidin-1-yl)-2,3-dihydropyridazine-4-carbonitrile] was tested. Which IC50 [1] did it give?
A: The IC50 was 0.001 to 10 µM.

Q: What about the IC50 [2] of the same compound?
A: The IC50 was 0.001 to 10 µM.

Q: Which results are given for `CC1(C)CC=C(c2ccnc(O[C@@H]3CCN(c4cn[nH]c(=O)c4Cl)C3)c2)CC1` [P-0099, (R)-4-chloro-5-(3-((4-(4,4-dimethylcyclohex-1-en-1-yl)pyridin-2-yl)oxy)pyrrolidin-1-yl)pyridazin-3(2H)-one]?
A: IC50 [1]: 0.001 to 10 µM; IC50 [2]: 0.001 to 10 µM

Q: For `N#CC1CC=C(c2ccnc(O[C@@H]3CCN(c4cn[nH]c(=O)c4Cl)C3)c2)CC1` (stereo partly drawn) [P-0100, 4-(2-(((R)-1-(5-chloro-6-oxo-1,6-dihydropyridazin-4-yl)pyrrolidin-3-yl)oxy)pyridin-4-yl)cyclohex-3-ene-1-carbonitrile], which IC50 [1] is on record?
A: Its IC50 is 0.001 to 10 µM.

Q: And the IC50 [2]?
A: The IC50 was 0.001 to 10 µM.

Q: With `CC(C)c1cc(Nc2cccnc2O[C@@H]2CCN(c3cnn(CCO)c(=O)c3Cl)C2)n(C)n1` [P-0101, (R)-4-chloro-2-(2-hydroxyethyl)-5-(3-((3-((3-isopropyl-1-methyl-1H-pyrazol-5-yl)amino)pyridin-2-yl)oxy)pyrrolidin-1-yl)pyridazin-3(2H)-one] as the compound, how does the IC50 [1] read?
A: Its IC50 is 0.001 to 10 µM.

Q: What about the IC50 [2] of the same compound?
A: Its IC50 is 10 to 100 µM.

Q: What does the source list for `O=c1c(Cl)c(N2CC[C@@H](Oc3ncccc3NC3CCC(F)(F)CC3)C2)cnn1CCO` [P-0102, (R)-4-chloro-5-(3-((3-((4,4-difluorocyclohexyl)amino)pyridin-2-yl)oxy)pyrrolidin-1-yl)-2-(2-hydroxyethyl)pyridazin-3(2H)-one]?
A: IC50 [1]: 0.001 to 10 µM; IC50 [2]: 0.001 to 10 µM

Q: What does the source list for `CC(=O)N1CCN(c2ccnc(O[C@@H]3CCN(c4cn[nH]c(=O)c4Cl)C3)c2)[C@@H](C)C1` [P-0103, 5-((R)-3-((4-((S)-4-acetyl-2-methylpiperazin-1-yl)pyridin-2-yl)oxy)pyrrolidin-1-yl)-4-chloropyridazin-3(2H)-one]?
A: IC50 [1]: 0.001 to 10 µM; IC50 [2]: 10 to 100 µM

Q: Which IC50 [1] does the source give for `CC(=O)N1CCN(c2ccnc(O[C@@H]3CCN(c4cn[nH]c(=O)c4Cl)C3)c2)[C@H](C)C1` [P-0104, 5-((R)-3-((4-((R)-4-acetyl-2-methylpiperazin-1-yl)pyridin-2-yl)oxy)pyrrolidin-1-yl)-4-chloropyridazin-3(2H)-one] here?
A: The IC50 was 0.001 to 10 µM.

Q: And the IC50 [2]?
A: Its IC50 is 10 to 100 µM.

Q: Which IC50 [1] does the source give for `Cc1ccnc(C(C)C)c1Nc1cccnc1O[C@@H]1CCN(c2cn[nH]c(=O)c2Cl)C1` [P-0105, (R)-4-chloro-5-(3-((3-((2-isopropyl-4-methylpyridin-3-yl)amino)pyridin-2-yl)oxy)pyrrolidin-1-yl)pyridazin-3(2H)-one] here?
A: Its IC50 is 0.001 to 10 µM.

Q: What about the IC50 [2] of the same compound?
A: The IC50 was 0.001 to 10 µM.

Q: Which results are given for `COc1ccc2c(c1)cc(-c1ccnc(O[C@@H]3CCN(c4cnn(CCO)c(=O)c4Cl)C3)c1)n2C` [P-0106, (R)-4-chloro-2-(2-hydroxyethyl)-5-(3-((4-(5-methoxy-1-methyl-1H-indol-2-yl)pyridin-2-yl)oxy)pyrrolidin-1-yl)pyridazin-3(2H)-one]?
A: IC50 [1]: 0.001 to 10 µM; IC50 [2]: 0.001 to 10 µM
